Measured values from ChEMBL document CHEMBL2073760, “Efflux transport of a new quinolone antibacterial agent, HSR-903, across the blood-brain barrier” (J Pharmacol Exp Ther, 1999).

Target: ATP-dependent translocase ABCB1 (Mus musculus, UniProt P21447)
Test: TP_TRANSPORTER: increase in brain concentration in mdr1a(-/-) mouse
Type: functional, organism-based
Conditions: in vivo

Sequence of ATP-dependent translocase ABCB1 (P21447 whole entry): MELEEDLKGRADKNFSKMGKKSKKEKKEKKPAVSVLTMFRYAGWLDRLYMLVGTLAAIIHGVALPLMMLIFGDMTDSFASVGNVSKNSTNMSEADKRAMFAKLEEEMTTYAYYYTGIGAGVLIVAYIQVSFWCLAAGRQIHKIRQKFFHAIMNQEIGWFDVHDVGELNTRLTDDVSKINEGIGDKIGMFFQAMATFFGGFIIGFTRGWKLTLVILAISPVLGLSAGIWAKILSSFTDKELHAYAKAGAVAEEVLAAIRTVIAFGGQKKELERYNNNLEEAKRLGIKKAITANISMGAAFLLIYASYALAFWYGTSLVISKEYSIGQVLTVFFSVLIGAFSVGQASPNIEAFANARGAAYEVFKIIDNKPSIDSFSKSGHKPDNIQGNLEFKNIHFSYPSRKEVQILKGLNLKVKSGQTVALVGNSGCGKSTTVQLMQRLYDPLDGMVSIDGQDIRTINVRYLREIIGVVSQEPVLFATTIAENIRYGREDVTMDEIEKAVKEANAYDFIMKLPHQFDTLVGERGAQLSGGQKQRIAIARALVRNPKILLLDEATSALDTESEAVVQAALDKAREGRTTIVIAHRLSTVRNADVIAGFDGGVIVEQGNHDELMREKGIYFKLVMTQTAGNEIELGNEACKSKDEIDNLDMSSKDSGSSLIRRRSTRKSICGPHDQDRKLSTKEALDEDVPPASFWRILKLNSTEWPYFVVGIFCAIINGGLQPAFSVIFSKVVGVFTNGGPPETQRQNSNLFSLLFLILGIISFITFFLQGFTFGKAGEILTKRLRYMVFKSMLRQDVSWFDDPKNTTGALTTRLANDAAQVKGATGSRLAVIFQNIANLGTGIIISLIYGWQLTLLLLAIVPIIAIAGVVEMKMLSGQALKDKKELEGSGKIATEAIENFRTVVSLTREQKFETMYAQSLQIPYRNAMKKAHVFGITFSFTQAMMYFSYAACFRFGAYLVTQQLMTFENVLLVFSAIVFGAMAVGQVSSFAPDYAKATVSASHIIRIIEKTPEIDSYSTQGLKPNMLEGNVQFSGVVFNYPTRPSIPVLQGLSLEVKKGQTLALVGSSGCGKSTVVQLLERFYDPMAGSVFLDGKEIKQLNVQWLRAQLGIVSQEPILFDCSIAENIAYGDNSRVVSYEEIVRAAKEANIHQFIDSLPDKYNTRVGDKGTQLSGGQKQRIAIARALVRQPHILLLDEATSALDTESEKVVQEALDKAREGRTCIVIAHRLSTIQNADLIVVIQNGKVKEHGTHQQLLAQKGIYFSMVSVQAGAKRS

CS(=O)(=O)O.Cc1c(N2C[C@@H](N)C3(CC3)C2)c(F)c(N)c2c(=O)c(C(=O)O)cn(C3CC3)c12
Activity: substrate [+]
